Test results from ChEMBL document CHEMBL1201862, “PubChem BioAssay data set” (2004).
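Five compound concentrations were applied to cells in 96-well plates for 48 hours; endpoints were derived by simple linear interpolation of the resulting dose-response curve. Abbreviation: GI50, concentration required for 50% inhibition of growth.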 Calls of active or inactive are those of the source. Cut-off read from the data, not from the text of the source: active = GI50 up to about 1.1 µM and inactive = higher.

How the values were obtained:
Test in all cases: inhibition of tumour cell growth, NCI panel, 48 h
NCI-H226 = system: NCI-H226
CCRF-CEM = system: CCRF-CEM
K562 = system: K562
Hs-578T = system: Hs-578T
SK-MEL-2 = system: SK-MEL-2
T47D = system: T47D
KM12 = system: KM12
UACC-62 = system: UACC-62
HCT-15 = system: HCT-15
SK-OV-3 = system: SK-OV-3
OVCAR-5 = system: OVCAR-5
CAKI-1 = system: CAKI-1
SNB-19 = system: SNB-19
SK-MEL-5 = system: SK-MEL-5
DU-145 = system: DU-145
EKVX = system: EKVX
SN12C = system: SN12C
MDA-MB-231 = system: MDA-MB-231
NCI-H23 = system: NCI-H23

Compound | GI50 (NCI-H226) | GI50 (CCRF-CEM) | GI50 (K562) | GI50 (Hs-578T) | GI50 (SK-MEL-2) | GI50 (T47D) | GI50 (KM12) | GI50 (UACC-62) | GI50 (HCT-15) [µM] | GI50 (SK-OV-3) | GI50 (OVCAR-5) | GI50 (CAKI-1) | GI50 (SNB-19) | GI50 (SK-MEL-5) | GI50 (DU-145) | GI50 (EKVX) | GI50 (SN12C) | GI50 (MDA-MB-231) | GI50 (NCI-H23)
CC1=C(C(=O)OCCc2ccc([N+](=O)[O-])cc2)C(c2ccccc2[N+](=O)[O-])C(C(=O)OC(C)C)=C(C)N1 (centres undefined) | 5.45 µM (inactive) | 2.36 µM (inactive) | 3.39 µM (inactive) | 4.38 µM (inactive) | 3.86 µM (inactive) | 3.9 µM (inactive) | 3.48 µM (inactive) | 4.29 µM (inactive) | 4.21 | 5.81 µM (inactive) | 31.1 µM (inactive) | 3.4 µM (inactive) | 5.61 µM (inactive) | 2.24 µM (inactive) | 9.04 µM (inactive) | 2.36 µM (inactive) | 6.87 µM (inactive) | 4.91 µM (inactive) | 3.97 µM (inactive)
CC1(C)C(=O)N=C(N)N1C(=O)OCc1ccccc1 | > 100 µM (inactive) | > 100 µM (inactive) | > 100 µM (inactive) | > 100 µM (inactive) | > 100 µM (inactive) | > 100 µM (inactive) | > 100 µM (inactive) | > 100 µM (inactive) | > 100 | > 100 µM (inactive) | > 100 µM (inactive) | > 100 µM (inactive) | > 100 µM (inactive) | > 100 µM (inactive) | > 100 µM (inactive) | > 100 µM (inactive) | > 100 µM (inactive) | > 100 µM (inactive) | > 100 µM (inactive)
N=C(N)SCCCN | 18.3 µM (inactive) | 1.39 µM (inactive) | 6.03 µM (inactive) | 5.61 µM (inactive) | 13.2 µM (inactive) | 32.2 µM (inactive) | 24.2 µM (inactive) | 17.6 µM (inactive) | 5.02 | 22.4 µM (inactive) | 32.6 µM (inactive) | 4.32 µM (inactive) | 20.7 µM (inactive) | 15 µM (inactive) | 20.4 µM (inactive) | 35.4 µM (inactive) | 25.2 µM (inactive) | 3.3 µM (inactive) | 6.1 µM (inactive)
CCOC(=O)/C=C/C(Br)=C(Br)/C=C/C(=O)OCC | 29.5 µM (inactive) | 0.796 µM (active) | 2.65 µM (inactive) | 29.2 µM (inactive) | 20.2 µM (inactive) | 14.8 µM (inactive) | 16.6 µM (inactive) | 15.4 µM (inactive) | 4.92 | 20.3 µM (inactive) | 18.6 µM (inactive) | 3.84 µM (inactive) | 17.5 µM (inactive) | 12.9 µM (inactive) | 13.1 µM (inactive) | 17.9 µM (inactive) | 7.85 µM (inactive) | 16.3 µM (inactive) | 14.5 µM (inactive)
C=CCC(C(=O)O)c1ccccc1 (centres undefined) | > 100 µM (inactive) | > 100 µM (inactive) | > 100 µM (inactive) | > 100 µM (inactive) | > 100 µM (inactive) | > 100 µM (inactive) | > 100 µM (inactive) | > 100 µM (inactive) | > 100 | > 100 µM (inactive) | > 100 µM (inactive) | > 100 µM (inactive) | > 100 µM (inactive) | > 100 µM (inactive) | > 100 µM (inactive) | > 100 µM (inactive) | > 100 µM (inactive) | > 100 µM (inactive) | > 100 µM (inactive)
C=CCc1ccccc1C1CC2(C(=O)OC)OC1C(C(=O)OC)=C2C(=O)OC (centres undefined) | > 10 µM (inactive) | > 10 µM (inactive) | > 10 µM (inactive) | > 10 µM (inactive) | > 10 µM (inactive) | > 10 µM (inactive) | > 10 µM (inactive) | > 10 µM (inactive) | > 10 | > 10 µM (inactive) | > 10 µM (inactive) | > 10 µM (inactive) | > 10 µM (inactive) | > 10 µM (inactive) | > 10 µM (inactive) | > 10 µM (inactive) | > 10 µM (inactive) | > 10 µM (inactive) | > 10 µM (inactive)
CC#CC(O)(C(=O)OC1CCCN(C)C1)C1=CC=CCC1 (centres undefined) | > 100 µM (inactive) | > 100 µM (inactive) | > 100 µM (inactive) | > 100 µM (inactive) | > 100 µM (inactive) | > 100 µM (inactive) | > 100 µM (inactive) | > 100 µM (inactive) | > 100 | > 100 µM (inactive) | > 100 µM (inactive) | > 100 µM (inactive) | > 100 µM (inactive) | > 100 µM (inactive) | > 100 µM (inactive) | > 100 µM (inactive) | > 100 µM (inactive) | > 100 µM (inactive) | > 100 µM (inactive)
O=C(CC(=O)Nc1ccccc1)NNC(Sc1ccccc1)c1cc(/N=N/c2ccc(Br)cc2)ccc1O (centres undefined) | 0.444 µM (active) | 0.417 µM (active) | 2.54 µM (inactive) | > 10 µM (inactive) | > 10 µM (inactive) | 3.51 µM (inactive) | 4.07 µM (inactive) | 2.09 µM (inactive) | 0.678 | 4.21 µM (inactive) | 7.98 µM (inactive) | 4.82 µM (inactive) | > 10 µM (inactive) | 1.06 µM (active) | 2.11 µM (inactive) | 8.83 µM (inactive) | 1.89 µM (inactive) | 2.24 µM (inactive) | 2.83 µM (inactive)
CC(C)Oc1cccc(N2C(CCc3c[nH]c4ccc(Br)cc34)=NS(=O)(=O)c3cnccc32)c1 | 37.3 µM (inactive) | 95.5 µM (inactive) | 27 µM (inactive) | 64.6 µM (inactive) | 53.2 µM (inactive) | 21.2 µM (inactive) | 49.7 µM (inactive) | 33.3 µM (inactive) | 30.8 | 36.8 µM (inactive) | 29.1 µM (inactive) | 22.7 µM (inactive) | 49.5 µM (inactive) | 35 µM (inactive) | 94.4 µM (inactive) | 29.2 µM (inactive) | 69 µM (inactive) | > 100 µM (inactive) | 61.9 µM (inactive)
O=C1/C(=C\c2ccccc2)C(NC2CCCCC2)c2ccccc21 (centres undefined) | 6.24 µM (inactive) | 0.124 µM (active) | 0.46 µM (active) | 3.18 µM (inactive) | 2.24 µM (inactive) | 1.73 µM (inactive) | 4.44 µM (inactive) | 2.38 µM (inactive) | 2.15 | 14 µM (inactive) | 4.17 µM (inactive) | 1.48 µM (inactive) | 10.5 µM (inactive) | 2.37 µM (inactive) | 1.53 µM (inactive) | 3.3 µM (inactive) | 1.55 µM (inactive) | 2.23 µM (inactive) | 0.76 µM (active)
CCOC(=O)C1=C(C)NC(C)=C(C(=O)OCCNC(=O)c2ccc(N=[N+]=[N-])cc2)C1c1ccccc1C(F)(F)F (centres undefined) [AZIDOPINE] | 15 µM (inactive) | 6.55 µM (inactive) | 7.83 µM (inactive) | 12.7 µM (inactive) | 6.53 µM (inactive) | 8.93 µM (inactive) | 7.85 µM (inactive) | 11.2 µM (inactive) | 8.45 | 13.3 µM (inactive) | 19.9 µM (inactive) | 12.4 µM (inactive) | 15.4 µM (inactive) | 7.85 µM (inactive) | 10.5 µM (inactive) | 10.7 µM (inactive) | 15.1 µM (inactive) | 14 µM (inactive) | 11.3 µM (inactive)
